This assay addresses T1, human PDE4B1 (Homo sapiens, UniProt Q07343).
T1 construct: host or cells: Sf9 cells
Nature of the assay: cAMP HTRF assay to determine the activity of hPDE4B1. To be noted: for inhibition at 1 µM / Inhibition at 1 μM test concentration [%]: Percentage inhibition of PDE4B at 1 μM test concentration; for IC50: reported as ranges. The format is biochemical. The essentials:
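Sf9-expressed recombinant human PDE4B1 (4.8 U) in Tris-HCl/MgCl2/DTT/Tween 20 buffer pH 7.8, with cAMP at 40 nM final, 30 min at room temperature. Reaction stopped with IBMX 1 mM; remaining cAMP detected by HTRF (665/620 nm ratio). IC50 from eight-point dose-response, n=2.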
In general terms: Time-resolved FRET reads energy transfer from a long-lived donor to a nearby acceptor.

[1] abbreviates: dose response measurements with eight concentrations, read-out: IC50.

Read-outs that look alike come from different tables or passages of the source.

What is called inhibition is the change of the read-out against control, counted positive when it falls. Broadly, the IC50 is the concentration at which inhibition is half-maximal. Broadly, the Inhibition is the drop in the measured response relative to a control, in per cent.

T1 sequence (Q07343 whole entry): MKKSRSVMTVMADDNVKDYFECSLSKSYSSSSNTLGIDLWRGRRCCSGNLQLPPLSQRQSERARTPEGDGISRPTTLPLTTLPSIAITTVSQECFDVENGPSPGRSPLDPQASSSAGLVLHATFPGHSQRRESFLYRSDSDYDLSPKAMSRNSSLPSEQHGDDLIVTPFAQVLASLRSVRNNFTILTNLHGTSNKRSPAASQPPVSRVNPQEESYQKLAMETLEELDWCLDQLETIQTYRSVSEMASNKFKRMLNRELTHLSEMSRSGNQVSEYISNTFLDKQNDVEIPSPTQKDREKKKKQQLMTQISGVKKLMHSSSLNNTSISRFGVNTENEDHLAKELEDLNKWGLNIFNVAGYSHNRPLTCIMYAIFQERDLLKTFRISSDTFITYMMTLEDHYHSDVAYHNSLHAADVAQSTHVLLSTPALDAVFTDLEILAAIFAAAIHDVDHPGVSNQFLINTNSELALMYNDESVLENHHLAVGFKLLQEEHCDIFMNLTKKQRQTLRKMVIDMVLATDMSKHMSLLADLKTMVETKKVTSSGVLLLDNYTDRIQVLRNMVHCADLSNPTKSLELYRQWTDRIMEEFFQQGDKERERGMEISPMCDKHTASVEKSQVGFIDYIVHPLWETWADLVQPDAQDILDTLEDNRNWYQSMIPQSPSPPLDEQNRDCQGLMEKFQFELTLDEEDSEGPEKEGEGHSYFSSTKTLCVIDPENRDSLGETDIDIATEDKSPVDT

For `CN(C)C(=O)COc1ccc2c(c1)N(c1nc(-c3ccccc3F)nc3c1C[S+]([O-])C3)CC2` (centres unmarked) [2-100, 2-[[1-[2-(2-Fluorophenyl)-6-oxo-5,7-dihydro-thieno[3,4-d]pyrimidin-4-yl]-2,3-dihydro-1H-indol-6-yl]oxy]-N,N-dimethyl-acetamide], the inhibition at 1 µM is 100%. The IC50 under setting [1] was less than 100 nM. As for `CCNC(=O)Cc1ccc2c(c1)CCN2c1nc(-c2ccc(Cl)s2)nc2c1CS(=O)(=O)C2` [Compound No. 3-4, 2-(1-(2-(5-Chlorothiophen-2-yl)-6,6-dioxido-5,7-dihydrothieno[3,4-d]pyrimidin-4-yl)indolin-5-yl)-N-ethylacetamide], the IC50 under setting [1] lay in the range of 100 to 1000 nM.

Turning to `CN1CCN(C(=O)COc2ccc3c(c2)N(c2nc(-c4ccc(Cl)s4)nc4c2CS(=O)(=O)C4)CC3)CC1` [Compound No. 2-123, 2-((1-(2-(5-Chlorothiophen-2-yl)-6,6-dioxido-5,7-dihydrothieno[3,4-d]pyrimidin-4-yl)indolin-6-yl)oxy)-1-(4-methylpiperazin-1-yl) ethanone], the inhibition at 1 µM came out at 95%. The compound also yielded a concentration for half-maximal inhibition (IC50) (IC50, dose response measurements with eight concentrations) of less than 100 nM. Turning to `CN(C)C(=O)COc1ccc2c(c1)N(c1nc(-c3ccc(O)c(F)c3)nc3c1C[S+]([O-])C3)CC2` (centres unmarked) [Compound No. 2-79, 2-((1-(2-(3-Fluoro-4-hydroxyphenyl)-6-oxido-5,7-dihydrothieno[3,4-d]pyrimidin-4-yl)indolin-6-yl)oxy)-N,N-dimethylacetamide], the inhibition at 1 µM worked out at 92%. The IC50 under setting [1] was less than 100 nM. In the case of `CN(C)C(=O)COc1ccc2c(c1)N(c1nc(-c3ccncc3)nc3c1C[S+]([O-])C3)CC2` (centres unmarked) [Compound No. 2-135, N,N-Dimethyl-2-((1-(6-oxido-2-(pyridin-4-yl)-5,7-dihydrothieno[3,4-d]pyrimidin-4-yl)indolin-6-yl)oxy)acetamide], the inhibition at 1 µM was determined as 97%. Under setting [1], the IC50 is less than 100 nM. Consider `CN(C)C(=O)Cc1ccc2c(c1)CCN2c1nc(-c2ccc(Cl)s2)nc2c1CS(=O)(=O)C2` [Compound No. 3-8, 2-(1-(2-(5-Chlorothiophen-2-yl)-6,6-dioxido-5,7-dihydrothieno[3,4-d]pyrimidin-4-yl)indolin-5-yl)-N,N-dimethylacetamide], for which the inhibition at 1 µM was 32%.

`O=C(COc1ccc2c(c1)N(c1nc(-c3ccncc3)nc3c1CS(=O)(=O)C3)CC2)N1CCC1` [Compound No. 2-131, 1-(Azetidin-1-yl)-2-((1-(6,6-dioxido-2-(pyridin-4-yl)-5,7-dihydrothieno[3,4-d]pyrimidin-4-yl)indolin-6-yl)oxy)ethanone]: the inhibition at 1 µM came out at 90%. The IC50 under setting [1] is less than 100 nM. For the compound `CN(C)C(=O)COc1ccc2c(c1)N(c1nc(-c3cccnc3)nc3c1CS(=O)(=O)C3)CC2` [Compound No. 2-136, 2-((1-(6,6-Dioxido-2-(pyridin-3-yl)-5,7-dihydrothieno[3,4-d]pyrimidin-4-yl)indolin-6-yl)oxy)-N,N-dimethylacetamide], the inhibition at 1 µM was determined as 98%. The IC50 under setting [1] was less than 100 nM. The like results for `COc1ccc(-c2nc3c(c(N4CCc5ccc(OCC(=O)N(C)C)cc54)n2)C[S+]([O-])C3)nc1` (centres unmarked) [Compound No. 2-141, 2-((1-(2-(5-Methoxypyridin-2-yl)-6-oxido-5,7-dihydrothieno[3,4-d]pyrimidin-4-yl)indolin-6-yl)oxy)-N,N-dimethylacetamide] were, in that order, 98% and less than 100 nM.

Regarding `O=C(O)Cc1ccc2c(c1)CCN2c1nc(-c2ccc3occc3c2)nc2c1C[S+]([O-])C2` (centres unmarked) [Compound No. 1-81, 2-(1-(2-(Benzofuran-5-yl)-6-oxido-5,7-dihydrothieno[3,4-d]pyrimidin-4-yl)indolin-5-yl)acetic acid], the inhibition at 1 µM amounted to 106%. For the same compound, the half-inhibitory concentration (IC50) under setting [1] was less than 100 nM. With `CCNC(=O)COc1ccc2c(c1)N(c1nc(-c3ccc(Cl)s3)nc3c1CS(=O)(=O)C3)CC2` [Compound No. 2-55, 2-((1-(2-(5-Chlorothiophen-2-yl)-6,6-dioxido-5,7-dihydrothieno[3,4-d]pyrimidin-4-yl)indolin-6-yl)oxy)-N-ethylacetamide], the inhibition at 1 µM stood at 52%. `N#Cc1ccc(-c2nc3c(c(N4CCc5cc(CC(=O)O)ccc54)n2)CCC3)s1` [Compound No. 1-16, 2-(1-(2-(5-Cyanothiophen-2-yl)-6,7-dihydro-5H-cyclopenta[d]pyrimidin-4-yl)indolin-5-yl)acetic acid]: the inhibition at 1 µM came out at 95%. Besides, the half-maximal inhibitory concentration (IC50) under setting [1] is less than 100 nM. Consider `COc1ccc(-c2nc3c(c(N4CCc5ccc(OCC(=O)N6CCCC6)cc54)n2)C[S+]([O-])C3)cc1F` (centres unmarked) [Compound No. 2-119, 2-((1-(2-(3-Fluoro-4-methoxyphenyl)-6-oxido-5,7-dihydrothieno[3,4-d]pyrimidin-4-yl)indolin-6-yl)oxy)-1-(pyrrolidin-1-yl)ethanone], for which the inhibition at 1 µM worked out at 107%.

Consider `O=C(O)c1ccc2c(cnn2-c2nc(-c3ccc(Cl)s3)nc3c2CCC3)c1` [Compound No. 1-73, 1-(2-(5-Chlorothiophen-2-yl)-6,7-dihydro-5H-cyclopenta[d]pyrimidin-4-yl)-1H-indazole-5-carboxylic acid], for which the inhibition at 1 µM is 80%. Also, the concentration for half-maximal inhibition (IC50) under setting [1] is 100 to 1000 nM.

As to `CN(CC1CC1)C(=O)COc1ccc2c(c1)N(c1nc(-c3ccc(Cl)s3)nc3c1CS(=O)(=O)C3)CC2` [Compound No. 2-57, 2-((1-(2-(5-Chlorothiophen-2-yl)-6,6-dioxido-5,7-dihydrothieno[3,4-d]pyrimidin-4-yl)indolin-6-yl)oxy)-N-(cyclopropylmethyl)-N-methylacetamide], the inhibition at 1 µM was 89%. The IC50 under setting [1] is less than 100 nM. Taken in the same sequence, the figures for `O=C(O)Cc1ccc2c(c1)CCN2c1nc(-c2ccc(Cl)s2)nc2c1CSC2` [Compound No. 1-20, 2-(1-(2-(5-Chlorothiophen-2-yl)-5,7-dihydrothieno[3,4-d]pyrimidin-4-yl)indolin-5-yl)acetic acid] were 92% and less than 100 nM. As to `O=C(COc1ccc2c(c1)N(c1nc(-c3ccc(Cl)s3)nc3c1C[S+]([O-])C3)CC2)N1CCOCC1` (centres unmarked) [Compound No. 2-118, 2-((1-(2-(5-Chlorothiophen-2-yl)-6-oxido-5,7-dihydrothieno[3,4-d]pyrimidin-4-yl)indolin-6-yl)oxy)-1-morpholinoethanone], the inhibition at 1 µM is 93%. As for `COc1ncccc1-c1nc2c(c(N3CCc4ccc(OCC(=O)N(C)C)cc43)n1)C[S+]([O-])C2` (centres unmarked) [2-105, 2-[[1-[2-(2-Methoxy-pyridin-3-yl)-6-oxo-5,7-dihydro-thieno[3,4-d]pyrimidin-4-yl]-2,3-dihydro-1H-indol-6-yl]oxy]-N,N-dimethyl-acetamide], the inhibition at 1 µM worked out at 77%. The IC50 under setting [1] was 100 to 1000 nM. In the case of `O=C(O)Cc1ccc2c(c1)CCN2c1nc(-c2ccc(Cl)s2)nc2c1CS(=O)(=O)C2` [Compound No. 1-22, 2-(1-(2-(5-Chlor-thiophen-2-yl)-6,6-dioxo-5,7-dihydro-thieno[3,4-d]pyrimidin-4-yl)-2,3-dihydro-1H-indol-5-yl)acetic acid], the “Inhibition at 1 μM test concentration [%]” value worked out at 115%. For `COc1ccc(-c2nc3c(c(N4CCc5ccc(OCC(=O)N(C)C)cc54)n2)C[S+]([O-])C3)cc1` (centres unmarked) [2-20, 2-[[1-[2-(4-Methoxyphenyl)-6-oxo-5,7-dihydro-thieno[3,4-d]pyrimidin-4-yl]-2,3-dihydro-1H-indol-6-yl]oxy]-N,N-dimethyl-acetamide], the “Inhibition at 1 μM test concentration [%]” value (1 µM) is reported as 98%. On to `CN(C)C(=O)COc1ccc2c(c1)N(c1nc(-c3ccc(Cl)c(F)c3)nc3c1C[S+]([O-])C3)CC2` (centres unmarked) [Compound No. 2-78, 2-((1-(2-(4-Chloro-3-fluorophenyl)-6-oxido-5,7-dihydrothieno[3,4-d]pyrimidin-4-yl)indolin-6-yl)oxy)-N,N-dimethylacetamide], for which the inhibition at 1 µM was 105%. Moreover, the concentration for half-maximal inhibition (IC50) under setting [1] was less than 100 nM. Consider `CN(C)C(=O)COc1ccc2c(c1)N(c1nc(-c3ccccc3NS(C)(=O)=O)nc3c1C[S+]([O-])C3)CC2` (centres unmarked) [2-104, 2-[[1-[2-[2-(Methanesulfonamido)-phenyl]-6-oxo-5,7-dihydro-thieno[3,4-d]pyrimidin-4-yl]-2,3-dihydro-1H-indol-6-yl]oxy]-N,N-dimethyl-acetamide], for which the inhibition at 1 µM is 85%. Besides, the half-inhibitory concentration (IC50) under setting [1] is 100 to 1000 nM. Taken in the same sequence, the figures for `O=C(COc1ccc2c(c1)N(c1nc(-c3ccncc3)nc3c1C[S+]([O-])C3)CC2)N1CCC1` (centres unmarked) [Compound No. 2-134, 1-(Azetidin-1-yl)-2-((1-(6-oxido-2-(pyridin-4-yl)-5,7-dihydrothieno[3,4-d]pyrimidin-4-yl)indolin-6-yl)oxy)ethanone] were 77% and less than 100 nM. Taken in the same sequence, the figures for `CN(C)C(=O)COc1ccc2c(c1)N(c1nc(-c3ccc(C#N)s3)nc3c1C[S+]([O-])C3)CC2` (centres unmarked) [Compound No. 2-82, 2-((1-(2-(5-Cyanothiophen-2-yl)-6-oxido-5,7-dihydrothieno[3,4-d]pyrimidin-4-yl)indolin-6-yl)oxy)-N,N-dimethylacetamide] were 99% and less than 100 nM.

Take `O=C(COc1ccc2c(c1)N(c1nc(-c3ccc(Cl)s3)nc3c1CCC3)CC2)NC1CC1` [Compound No. 2-114, 2-((1-(2-(5-Chlorothiophen-2-yl)-6,7-dihydro-5H-cyclopenta[d]-pyrimidin-4-yl)indolin-6-yl)oxy)-N-cyclopropylacetamide]: the inhibition at 1 µM amounted to 38%.

On to `CN(C)C(=O)COc1ccc2c(c1)N(c1nc(-c3ccc(F)cc3)nc3c1C[S+]([O-])C3)CC2` (centres unmarked) [2-99, 2-[[1-[2-(4-Fluorophenyl)-6-oxo-5,7-dihydro-thieno[3,4-d]pyrimidin-4-yl]-2,3-dihydro-1H-indol-6-yl]oxy]-N,N-dimethyl-acetamide], for which the inhibition at 1 µM was 104%. In addition, the IC50 under setting [1] is less than 100 nM.
